Measurements as given in patent publication US8178123B2, “Method for augmentation of intraepithelial and systemic exposure of therapeutic agents having substrate activity for cytochrome P450 enzymes and membrane efflux systems following vaginal and oral cavity administration” (Femina Pharma Incorporated, priority 2001, dated 2012).

Columns and labels:
[1] = test system: membrane efflux systems; assay: Bidirectional transport of ritonavir across rabbit mucosa in diffusion cells (membrane efflux activity); type: in vitro ADME
Excerpt: To illustrate experimentally the functional differences in membrane efflux activity among the intestinal, vaginal, and buccal mucosal barriers, bidirectional transport of the protease inhibitor ritonavir is quantitatively assessed and results seen in FIG. 1 may be obtained (FIG. 1). Experimental procedures are described in Example 2.
Briefly, fresh mucosal samples are collected from female, white New Zealand rabbits, are separated from underlying connective tissue, and are mounted into modified Franz-type diffusion cells (5 mm diameter). Permeability studies from the apical to the basolateral as well as in the opposite direction are performed using continuous-flow perfusion chambers designed for mucosal tissue (Squier et al. J. Pharm. Sci., 86, 82-84 (1997)). ^3H-Ritonavir (˜3 μCi/mL) dissolved in 1 mL of 0.01 M PBS, pH 7.4, is applied to the donor compartment, and the perfusate in the received compartment is collected into scintillation vials through 16 hrs. Radioactivity is determined by liquid scintillation counting using a Beckman LS 6500. Each transport experiment is performed in four replicate tissue samples. Apparent permeability coefficients (Papp) are calculated from steady state flux according to Papp [cm/min]=(ΔQ/Δt)/Axc(0), where ΔQ/Δt=linear appearance rate of mass in the receiver, A=cross-sectional area (i.e., 0.20 cm^2), and c(0)=initial ritonavir concentration in the donor compartment at t=0. Individual and mean Papp values with corresponding standard deviations (S.D.) are calculated for each group. Statistical significance is tested by one-way analysis of variance (ANOVA) using Tukey's family error at p<0.05. To evaluate the contribution of membrane efflux system on ritonavir permeability Refflux was calculated as the ratio of Papp(basolateral-apical)/Papp(apical-basolateral).

[2] = biological target: T1, P-glycoprotein (Oryctolagus cuniculus, UniProt Q6UUW3); assay: Apical to basolateral transport of 14C-paclitaxel across rabbit intestinal mucosa with and without glycol ethers or verapamil; type: in vitro ADME
T1 construct: from tissue; host or cells: rabbit intestinal mucosa (tissue perfusion / diffusion cells)
Procedure: Briefly, fresh mucosal samples are collected from female, white New Zealand rabbits, are separated from underlying connective tissue, and are mounted into modified Franz-type diffusion cells (5 mm diameter). […] Radioactivity is determined by liquid scintillation counting using a Beckman LS 6500. Each transport experiment is performed in four replicate tissue samples. […] Individual and mean Papp values with corresponding standard deviations (S.D.) are calculated for each group. Statistical significance is tested by one-way analysis of variance (ANOVA) using Tukey's family error at p<0.05. […]

[3] = test system: cytochrome P450; assay: Cytochrome P450-mediated oxidation of coumarin to 7α-hydroxycoumarin by rabbit liver microsomes; type: biochemical; settings: 1% glycol ether
Procedure: To evaluate the effect of glycol ethers on cytochrome P450-mediated metabolism, enzymatic conversion of coumarin to its 7α-hydroxycoumarin oxidation product by rabbit liver microsomes in the presence and absence of 5% DGMEE, 1% DBMPE, and 1% DGMBE is determined according to a protocol described previously by Pearce and co-workers (Arch. Biochem. Biophys., 298, 211-225 (1992)).

T1 sequence (Q6UUW3 1-1279): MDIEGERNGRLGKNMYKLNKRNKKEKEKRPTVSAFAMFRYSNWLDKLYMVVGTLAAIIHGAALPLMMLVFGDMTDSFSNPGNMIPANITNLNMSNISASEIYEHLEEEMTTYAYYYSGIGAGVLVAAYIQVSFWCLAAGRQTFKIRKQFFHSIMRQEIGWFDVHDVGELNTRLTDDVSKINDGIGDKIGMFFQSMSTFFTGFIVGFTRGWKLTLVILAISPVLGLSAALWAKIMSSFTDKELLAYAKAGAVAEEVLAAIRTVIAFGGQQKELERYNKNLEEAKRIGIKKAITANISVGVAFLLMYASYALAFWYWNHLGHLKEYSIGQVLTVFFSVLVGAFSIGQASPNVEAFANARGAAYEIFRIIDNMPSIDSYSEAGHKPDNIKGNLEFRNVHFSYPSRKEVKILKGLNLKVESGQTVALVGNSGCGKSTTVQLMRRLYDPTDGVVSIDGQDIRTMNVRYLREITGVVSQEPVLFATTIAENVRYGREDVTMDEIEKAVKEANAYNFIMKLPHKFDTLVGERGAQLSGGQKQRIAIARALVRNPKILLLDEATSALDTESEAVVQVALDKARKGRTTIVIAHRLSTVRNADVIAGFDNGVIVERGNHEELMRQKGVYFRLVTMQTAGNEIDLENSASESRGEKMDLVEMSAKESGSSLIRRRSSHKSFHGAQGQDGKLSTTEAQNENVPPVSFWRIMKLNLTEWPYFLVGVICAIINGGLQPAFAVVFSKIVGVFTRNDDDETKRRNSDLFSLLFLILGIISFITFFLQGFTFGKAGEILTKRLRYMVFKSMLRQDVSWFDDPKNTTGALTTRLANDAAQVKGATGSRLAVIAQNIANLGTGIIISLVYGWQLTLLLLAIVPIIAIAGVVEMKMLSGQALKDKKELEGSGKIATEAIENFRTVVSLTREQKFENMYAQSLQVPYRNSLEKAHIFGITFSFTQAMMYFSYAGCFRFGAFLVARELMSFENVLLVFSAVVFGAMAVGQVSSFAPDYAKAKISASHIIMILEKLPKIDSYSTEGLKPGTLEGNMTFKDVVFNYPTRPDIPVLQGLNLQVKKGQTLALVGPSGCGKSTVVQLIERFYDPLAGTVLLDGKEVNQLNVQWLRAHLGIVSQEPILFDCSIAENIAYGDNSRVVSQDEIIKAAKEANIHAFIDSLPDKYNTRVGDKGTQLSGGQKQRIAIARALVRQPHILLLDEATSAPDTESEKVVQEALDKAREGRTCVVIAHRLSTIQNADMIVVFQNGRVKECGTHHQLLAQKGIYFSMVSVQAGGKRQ

CC(C)c1nc(CN(C)C(=O)N[C@H](C(=O)N[C@@H](Cc2ccccc2)C[C@H](O)[C@H](Cc2ccccc2)NC(=O)OCc2cncs2)C(C)C)cs1 [ritonavir]
Refflux compared with intestinal barrier ([1]; buccal rabbit epithelium in vitro): significantly smaller | basolateral to apical flux relative to the opposite direction (Refflux) ([1]; intestinal rabbit mucosa in vitro, 3H-ritonavir): 9.2 fold | Refflux compared with intestinal barrier ([1]; vaginal rabbit epithelium in vitro): significantly smaller

CCOCCOCCO [DGMEE, diethylene glycol mono 2-ethyl ether]
enhancement of intestinal absorption of paclitaxel ([2]; 5% in transport buffer): 1.8 fold

CCCCOCCOCCO [DGMBE, diethylene glycol monobutyl ether]
enhancement of intestinal absorption of paclitaxel ([2]; 1% in transport buffer): 4.1 fold | reduction of formation of the 7α-hydroxycoumarin metabolite [3]: about 42%

CCCOCCOCCO [DGMPE, diethylene glycol monopropyl ether]
enhancement of intestinal absorption of paclitaxel ([2]; 1% in transport buffer): 2.5 fold
